Read-outs that look alike come from different tables or passages of the source. Values belong to the compound of their own block, whether it stands above or below them.
Experiments:
[1] = cited from earlier work
endothelial recruitment = assay: inhibition of endothelial recruitment in vitro; assay type: cell-based
ApoE [2] = assay: ApoE gene expression induction in cancer cells; assay type: cell-based
ApoE [3] = assay: ApoE gene expression induction in hPBMCs; assay type: cell-based, human
[4] = system: melanoma, glioblastoma, TNBC, ovarian cancer, and lung cancer; assay: syngeneic and human xenograft mouse tumor models, primary tumor growth; assay type: in vivo
[5] = biological target: human ether-à-go-go-related gene (hERG) channel (Homo sapiens, UniProt Q12809); assay: in vitro hERG assay; assay type: cell-based
[6] = ECG and heart rate in dogs (safety pharmacology); assay type: in vivo
[7] = neurobehavioral FOB and respiratory evaluations in rats; assay type: in vivo
oral PK in CD-1 mice = assay type: in vivo
[8] = oral PK in Sprague-Dawley rats; assay type: in vivo
[9] = oral PK in male Beagle dogs; assay type: in vivo
[10] = oral PK in Cynomolgus monkeys; assay type: in vivo
CYP3A4 = CYP3A4 (Homo sapiens, UniProt P08684); assay: in vitro metabolism by CYP isoforms; assay type: in vitro ADME
[11] = system: CYP2E1, CYP2C9, CYP2C19, and possibly CYP2J2; assay: in vitro metabolism by CYP isoforms (other substrates); assay type: in vitro ADME
1A1 = biological target: T1, 1A1 (Homo sapiens, UniProt P04798); assay: CYP inhibition in vitro; assay type: in vitro ADME
T1 sequence (P04798 1-512): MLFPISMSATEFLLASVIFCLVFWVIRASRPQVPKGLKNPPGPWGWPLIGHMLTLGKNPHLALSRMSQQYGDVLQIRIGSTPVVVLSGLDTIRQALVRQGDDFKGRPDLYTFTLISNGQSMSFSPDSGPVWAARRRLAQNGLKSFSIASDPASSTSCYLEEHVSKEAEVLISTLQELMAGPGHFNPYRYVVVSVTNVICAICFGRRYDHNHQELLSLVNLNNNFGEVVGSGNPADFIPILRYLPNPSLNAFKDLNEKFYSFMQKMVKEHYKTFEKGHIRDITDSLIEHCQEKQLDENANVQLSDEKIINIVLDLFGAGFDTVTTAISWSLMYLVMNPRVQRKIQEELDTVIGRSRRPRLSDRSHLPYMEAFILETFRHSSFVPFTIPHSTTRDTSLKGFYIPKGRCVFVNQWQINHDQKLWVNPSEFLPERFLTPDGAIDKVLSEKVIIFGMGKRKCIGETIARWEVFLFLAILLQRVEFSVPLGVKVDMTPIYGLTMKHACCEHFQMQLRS

2A6 = biological target: T2, 2A6 (Homo sapiens, UniProt P11509); assay: CYP inhibition in vitro; assay type: in vitro ADME
T2 sequence (P11509 1-494): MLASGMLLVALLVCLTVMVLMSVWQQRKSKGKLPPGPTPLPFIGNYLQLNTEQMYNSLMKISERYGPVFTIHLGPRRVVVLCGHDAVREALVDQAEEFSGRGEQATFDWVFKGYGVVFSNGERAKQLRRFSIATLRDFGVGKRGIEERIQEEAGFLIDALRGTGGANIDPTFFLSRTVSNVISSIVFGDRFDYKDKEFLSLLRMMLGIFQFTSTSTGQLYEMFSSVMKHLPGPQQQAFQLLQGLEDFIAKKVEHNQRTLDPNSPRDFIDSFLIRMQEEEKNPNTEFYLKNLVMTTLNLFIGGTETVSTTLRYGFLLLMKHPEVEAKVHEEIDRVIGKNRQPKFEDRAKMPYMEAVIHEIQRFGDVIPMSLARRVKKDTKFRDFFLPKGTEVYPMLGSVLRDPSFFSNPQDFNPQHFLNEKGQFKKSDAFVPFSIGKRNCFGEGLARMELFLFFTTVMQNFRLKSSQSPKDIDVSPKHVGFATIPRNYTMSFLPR

2C9 = 2C9 (Homo sapiens, UniProt P11712); assay: CYP inhibition in vitro; assay type: in vitro ADME
2C19 = 2C19 (Homo sapiens, UniProt P33261); assay: CYP inhibition in vitro; assay type: in vitro ADME
2D6 = 2D6 (Homo sapiens, UniProt P10635); assay: CYP inhibition in vitro; assay type: in vitro ADME
2E1 = 2E1 (Homo sapiens, UniProt P05181); assay: CYP inhibition in vitro; assay type: in vitro ADME
3A4 = 3A4 (Homo sapiens, UniProt P08684); assay: CYP inhibition in vitro; assay type: in vitro ADME
CYP3A [12] = assay: CYP3A time-dependent inhibition in vitro; assay type: in vitro ADME; details: testosterone as the substrate
CYP3A [13] = assay: CYP induction in cryopreserved hepatocytes; assay type: in vitro ADME; details: primary cultures of cryopreserved hepatocytes (2 donors)
CYP2B6 = assay: CYP induction in cryopreserved hepatocytes; assay type: in vitro ADME; details: 1 concentration in 1/3 donors
P-glucoprotein (P-gp) = P-glucoprotein (P-gp) (Homo sapiens, UniProt P08183); assay: efflux transporter inhibition in vitro; assay type: in vitro ADME
[14] = animal / pre-clinical toxicology studies; assay type: in vivo
[15] = clinical safety in subjects treated with Compound 1; assay type: in vivo
[16] = initial solubility assessment in 12 solvents/solvent mixtures; assay type: physicochemical; details: amorphous Compound 1, 12 solvents/solvent mixtures
Experimental: An initial solubility assessment was conducted in 12 solvents/solvent mixtures using amorphous Compound 1. […] Salt screening by cooling, anti-solvent addition, maturation, liquid assisted grinding, neat grinding and evaporation were all investigated. Gums isolated were subjected to heat/cool maturation cycles (room temperature/50° C.), sonication, prolonged storage under vacuum, prolonged storage at 40° C./75% RH, trituration with anti-solvent and liquid assisted grinding (LAG) with water. From extensive salt screening, eight hits were obtained. Amorphous hits with a high glass transition temperature (Tg) were identified from zinc chloride, naphthalene-2-sulfonic acid, 1,5-naphthalene disulfonic acid, and ethane sulfonic acid. One crystalline hit was identified from ethane sulfonic acid. Poorly crystalline material was isolated from calcium hydroxide, magnesium hydroxide and aluminum hydroxide.

CYP1A2 = assay: CYP induction
[17] = stability of salts of Compound 1 during processing and formulation; details: for stability of strong acid salts: readily undergo apparent esterification with alcoholic solvents; for stability towards excipients and/or components of a formulation: salts react with excipients and/or components of a formulation
[18] = cited from earlier work; remark: listed apart in the source
[19] = Table 5, counterion sources, first set Study 3
[20] = Table 6, counterion sources, second set Study 3

Sequence of 2C19 (P33261 whole entry): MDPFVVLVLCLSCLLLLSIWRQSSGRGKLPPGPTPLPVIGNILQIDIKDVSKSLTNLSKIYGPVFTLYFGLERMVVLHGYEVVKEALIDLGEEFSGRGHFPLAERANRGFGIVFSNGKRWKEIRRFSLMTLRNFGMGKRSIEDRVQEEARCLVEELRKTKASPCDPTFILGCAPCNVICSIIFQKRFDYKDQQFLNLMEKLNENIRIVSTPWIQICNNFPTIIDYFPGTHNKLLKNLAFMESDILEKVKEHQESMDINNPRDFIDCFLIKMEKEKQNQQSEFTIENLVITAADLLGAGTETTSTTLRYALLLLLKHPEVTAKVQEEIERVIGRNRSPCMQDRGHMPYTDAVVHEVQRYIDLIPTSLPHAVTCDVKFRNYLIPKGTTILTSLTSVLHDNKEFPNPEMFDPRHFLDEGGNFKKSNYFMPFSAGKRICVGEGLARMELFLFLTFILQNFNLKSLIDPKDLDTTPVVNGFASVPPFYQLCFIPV
Sequence of CYP3A4 (P08684 whole entry, canonical isoform): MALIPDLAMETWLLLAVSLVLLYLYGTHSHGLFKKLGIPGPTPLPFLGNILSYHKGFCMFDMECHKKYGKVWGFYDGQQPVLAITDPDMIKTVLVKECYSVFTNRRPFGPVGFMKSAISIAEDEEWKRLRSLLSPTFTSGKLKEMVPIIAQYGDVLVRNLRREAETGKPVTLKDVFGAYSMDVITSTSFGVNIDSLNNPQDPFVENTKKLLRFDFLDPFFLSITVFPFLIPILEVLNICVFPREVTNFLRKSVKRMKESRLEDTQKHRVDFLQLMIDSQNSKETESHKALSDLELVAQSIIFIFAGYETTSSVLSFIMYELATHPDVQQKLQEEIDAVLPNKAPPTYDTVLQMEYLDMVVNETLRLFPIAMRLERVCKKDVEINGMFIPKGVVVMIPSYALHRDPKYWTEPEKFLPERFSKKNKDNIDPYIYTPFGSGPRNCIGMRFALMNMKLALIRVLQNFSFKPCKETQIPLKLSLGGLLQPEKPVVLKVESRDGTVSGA
Sequence of 3A4 (P08684 whole entry): as the sequence (P08684 whole entry, canonical isoform) above
Sequence of human ether-à-go-go-related gene (hERG) channel (Q12809 whole entry): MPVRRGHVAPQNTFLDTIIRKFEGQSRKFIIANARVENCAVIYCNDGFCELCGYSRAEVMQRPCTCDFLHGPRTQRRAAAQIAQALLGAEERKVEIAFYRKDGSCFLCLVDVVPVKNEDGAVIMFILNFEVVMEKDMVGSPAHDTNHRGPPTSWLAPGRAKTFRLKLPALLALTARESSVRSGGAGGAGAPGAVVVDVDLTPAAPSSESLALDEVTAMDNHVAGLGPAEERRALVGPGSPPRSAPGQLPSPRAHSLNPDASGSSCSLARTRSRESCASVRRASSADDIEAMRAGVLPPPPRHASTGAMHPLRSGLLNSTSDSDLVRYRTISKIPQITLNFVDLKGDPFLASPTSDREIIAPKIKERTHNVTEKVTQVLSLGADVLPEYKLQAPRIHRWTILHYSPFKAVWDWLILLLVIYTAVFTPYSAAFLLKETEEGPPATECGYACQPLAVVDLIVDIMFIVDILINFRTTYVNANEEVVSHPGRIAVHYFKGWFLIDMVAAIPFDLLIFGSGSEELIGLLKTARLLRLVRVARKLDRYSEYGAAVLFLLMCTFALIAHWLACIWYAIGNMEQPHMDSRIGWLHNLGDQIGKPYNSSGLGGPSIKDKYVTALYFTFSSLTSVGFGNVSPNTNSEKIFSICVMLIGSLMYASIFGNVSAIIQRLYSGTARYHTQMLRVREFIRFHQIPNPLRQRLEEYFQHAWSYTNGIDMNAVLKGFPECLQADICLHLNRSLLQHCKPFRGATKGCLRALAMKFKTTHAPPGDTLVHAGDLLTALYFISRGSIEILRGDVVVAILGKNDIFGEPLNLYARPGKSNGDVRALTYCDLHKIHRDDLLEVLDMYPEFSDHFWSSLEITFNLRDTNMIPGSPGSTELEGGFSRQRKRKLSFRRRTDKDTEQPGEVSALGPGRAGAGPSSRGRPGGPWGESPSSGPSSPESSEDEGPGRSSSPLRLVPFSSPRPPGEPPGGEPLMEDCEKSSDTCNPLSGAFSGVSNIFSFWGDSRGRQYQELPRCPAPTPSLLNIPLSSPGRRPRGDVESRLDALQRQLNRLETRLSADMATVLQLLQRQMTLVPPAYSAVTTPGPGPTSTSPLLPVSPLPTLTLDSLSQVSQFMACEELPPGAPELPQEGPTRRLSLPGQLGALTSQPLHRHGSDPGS
Sequence of 2C9 (P11712 whole entry): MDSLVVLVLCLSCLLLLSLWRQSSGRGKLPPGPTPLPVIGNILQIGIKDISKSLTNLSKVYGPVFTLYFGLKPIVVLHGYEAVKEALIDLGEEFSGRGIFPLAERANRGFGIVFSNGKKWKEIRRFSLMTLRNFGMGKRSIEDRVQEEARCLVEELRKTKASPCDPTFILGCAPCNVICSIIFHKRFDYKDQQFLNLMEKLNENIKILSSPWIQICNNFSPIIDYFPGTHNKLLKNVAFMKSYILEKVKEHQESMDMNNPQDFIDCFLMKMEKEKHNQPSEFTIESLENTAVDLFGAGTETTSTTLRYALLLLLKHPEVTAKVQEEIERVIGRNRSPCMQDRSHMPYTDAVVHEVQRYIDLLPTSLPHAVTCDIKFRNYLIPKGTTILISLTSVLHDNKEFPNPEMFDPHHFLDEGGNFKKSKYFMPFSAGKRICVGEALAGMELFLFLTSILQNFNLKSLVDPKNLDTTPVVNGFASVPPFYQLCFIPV
Sequence of 2D6 (P10635 whole entry): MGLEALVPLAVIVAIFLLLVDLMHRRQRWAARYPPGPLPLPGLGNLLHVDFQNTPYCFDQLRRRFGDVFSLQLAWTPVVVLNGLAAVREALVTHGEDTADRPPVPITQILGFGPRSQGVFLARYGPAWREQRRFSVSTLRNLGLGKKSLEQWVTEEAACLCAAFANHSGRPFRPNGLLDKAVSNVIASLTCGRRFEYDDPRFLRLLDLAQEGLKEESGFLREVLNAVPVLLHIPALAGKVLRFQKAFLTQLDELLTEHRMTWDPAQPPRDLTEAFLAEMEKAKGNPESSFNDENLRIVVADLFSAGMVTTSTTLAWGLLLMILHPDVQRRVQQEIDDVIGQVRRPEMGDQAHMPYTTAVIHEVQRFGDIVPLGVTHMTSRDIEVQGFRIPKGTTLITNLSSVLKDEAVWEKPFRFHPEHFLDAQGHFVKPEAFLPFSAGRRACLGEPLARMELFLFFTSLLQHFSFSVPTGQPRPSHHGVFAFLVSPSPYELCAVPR
Sequence of 2E1 (P05181 whole entry): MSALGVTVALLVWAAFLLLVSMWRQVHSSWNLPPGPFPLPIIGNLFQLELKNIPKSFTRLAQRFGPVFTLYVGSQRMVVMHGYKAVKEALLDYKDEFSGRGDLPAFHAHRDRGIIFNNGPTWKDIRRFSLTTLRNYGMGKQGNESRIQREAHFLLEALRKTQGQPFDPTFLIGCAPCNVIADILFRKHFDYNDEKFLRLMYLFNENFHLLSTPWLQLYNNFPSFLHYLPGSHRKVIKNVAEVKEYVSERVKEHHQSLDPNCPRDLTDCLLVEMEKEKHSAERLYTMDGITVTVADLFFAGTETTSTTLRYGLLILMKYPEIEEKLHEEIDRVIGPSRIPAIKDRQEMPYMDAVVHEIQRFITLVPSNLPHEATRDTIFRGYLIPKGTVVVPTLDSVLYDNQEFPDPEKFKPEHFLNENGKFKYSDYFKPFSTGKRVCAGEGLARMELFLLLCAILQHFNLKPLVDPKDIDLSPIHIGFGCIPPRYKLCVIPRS
Sequence of P-glucoprotein (P-gp) (P08183 whole entry): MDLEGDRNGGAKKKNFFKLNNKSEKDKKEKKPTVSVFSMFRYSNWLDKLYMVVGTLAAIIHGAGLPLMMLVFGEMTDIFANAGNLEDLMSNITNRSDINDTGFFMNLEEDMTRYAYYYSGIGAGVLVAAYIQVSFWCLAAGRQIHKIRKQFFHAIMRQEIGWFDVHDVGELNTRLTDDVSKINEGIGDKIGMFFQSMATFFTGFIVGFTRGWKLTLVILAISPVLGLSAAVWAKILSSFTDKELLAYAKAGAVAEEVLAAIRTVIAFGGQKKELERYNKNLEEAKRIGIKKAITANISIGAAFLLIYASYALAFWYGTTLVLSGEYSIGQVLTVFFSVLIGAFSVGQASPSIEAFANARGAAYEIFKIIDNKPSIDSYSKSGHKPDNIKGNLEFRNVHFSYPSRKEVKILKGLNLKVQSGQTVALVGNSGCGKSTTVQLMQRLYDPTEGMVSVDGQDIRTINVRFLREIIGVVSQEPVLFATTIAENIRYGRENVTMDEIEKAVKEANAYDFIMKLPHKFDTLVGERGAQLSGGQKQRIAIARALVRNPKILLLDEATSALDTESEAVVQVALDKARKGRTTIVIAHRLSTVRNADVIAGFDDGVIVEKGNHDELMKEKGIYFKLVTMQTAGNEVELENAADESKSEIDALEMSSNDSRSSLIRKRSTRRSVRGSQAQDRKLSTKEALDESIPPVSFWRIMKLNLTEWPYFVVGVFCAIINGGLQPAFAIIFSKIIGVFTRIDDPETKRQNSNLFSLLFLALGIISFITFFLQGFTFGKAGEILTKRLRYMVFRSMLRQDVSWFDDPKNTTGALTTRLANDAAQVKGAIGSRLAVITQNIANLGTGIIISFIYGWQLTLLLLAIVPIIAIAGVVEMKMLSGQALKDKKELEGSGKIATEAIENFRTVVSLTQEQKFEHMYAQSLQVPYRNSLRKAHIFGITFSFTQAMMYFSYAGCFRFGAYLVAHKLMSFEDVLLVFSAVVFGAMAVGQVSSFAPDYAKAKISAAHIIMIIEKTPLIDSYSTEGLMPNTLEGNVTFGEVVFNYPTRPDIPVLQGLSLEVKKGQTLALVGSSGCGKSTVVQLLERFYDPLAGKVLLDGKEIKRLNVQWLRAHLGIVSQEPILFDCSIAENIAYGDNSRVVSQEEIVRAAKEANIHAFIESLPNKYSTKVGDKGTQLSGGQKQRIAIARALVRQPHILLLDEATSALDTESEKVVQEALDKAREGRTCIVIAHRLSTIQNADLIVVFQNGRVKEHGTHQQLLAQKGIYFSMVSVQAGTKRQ

Compound: O=S(=O)(O)CCS(=O)(=O)O [Ethane-1,2-disulfonic acid]
pKa1 [1, 19]: −2.1

Compound: C[C@H](CCOc1cccc(CC(=O)O)c1)N(Cc1cccc(C(F)(F)F)c1Cl)CC(c1ccccc1)c1ccccc1 [Compound 1, 2-[3-[(3R)-3-[[2-chloro-3-(trifluoromethyl)phenyl]methyl-(2,2-diphenylethyl)amino]butoxy]phenyl]acetic acid]
inhibition of endothelial recruitment (endothelial recruitment): ~50%
EC50 (ApoE [2]): 385 nM
induction of ApoE gene expression (ApoE [2]; compared to control cells): 3 fold
EC50 (ApoE [3]; Homo sapiens): 271 nM
induction of ApoE gene expression (ApoE [3]; compared to control cells): up to 40 fold
exposures at minimum efficacious doses ([4]; 25-40 mg/kg/day PO): 10,000-50,000 ng-h/mL
minimum efficacious doses ([4]; administered orally (PO), tumor growth studies): 25 to 40 mg/kg/day
hERG channel conductance [5]: significant increase, but not inhibition
effects on qualitative ECG parameters (PR or QTc intervals or QRS duration) [6]: no Compound 1-related effects
mean heart rate ([6]; Day 1 post-dose interval, significant in females at 150 (stepped down to 100) mg/kg/day): dose related decrease
neurobehavioral FOB or respiratory evaluations [7]: no adverse effects
food effect: plasma concentrations fed state (oral PK in CD-1 mice): > 2 fold
mean apparent oral t % ([8]; female rats): 6.5 h
clearance, females versus males ([8]; rats): cleared at a lower rate in female rats compared to males
mean apparent oral t % [9]: 5 to 6.7 h
Mean oral t % [10]: 5.5 to 8 h
metabolism by CYP3A4 (CYP3A4): metabolized predominantly
substrate for other CYP isoforms [11]: also a substrate
inhibition of 1A1 (1A1): very weakly inhibited
inhibition of 2A6 (2A6): very weakly inhibited
inhibition of 2C9 (2C9): very weakly inhibited
inhibition of 2C19 (2C19): very weakly inhibited
inhibition of 2D6 (2D6): very weakly inhibited
inhibition of 2E1 (2E1): very weakly inhibited
inhibition of 3A4 (3A4): very weakly inhibited
CYP3A time-dependent inhibition (TDI) (CYP3A [12]): time-dependent inhibition (TDI) was demonstrated
induction of CYP3A (CYP3A [13]): Induction of CYP3A by Compound 1 was demonstrated
induction of CYP2B6 (CYP2B6): > 2 fold
inhibition of P-gp (P-glucoprotein (P-gp)): does not inhibit
potential risks based on animal toxicology studies ([14]; animal toxicology studies): elevations in serum cholesterol and TG, neutropenia/leukopenia, nausea and/or vomiting, elevations in liver enzymes, development or worsening of cataracts, cardiac rhythm disturbances and/or reduced cardiac function, harderian gland adenocarcinoma, and/or generalized edema
liver function in pre-clinical toxicity studies ([14]; pre-clinical toxicity studies): Liver function abnormalities have been observed
dose limiting toxicity on single agent therapy ([15]; Compound 1 single agent therapy): DLT of Grade 4 neutropenia
hyperlipidemia in treated subjects ([15]; subjects treated with Compound 1): hyperlipidemia has been observed
solubility in solvents/solvent mixtures [16]: Dissolution was observed in most of the samples
induction of CYP1A2 (CYP1A2): did not induce

Compound: OCCN1CCCC1 [1-(2-Hydroxyethyl)-pyrrolidine]
pKa1 [1, 20]: 9.4

Compound: O=S(=O)([O-])CCO.[Na+] [Sodium isethionate]
pKa1 [1, 20]: 1.7

Compound: C[N+](C)(C)CCO [Choline]
pKa1 [1, 19]: >11.0

stability of strong acid salts [17]: prone to instability
stability towards excipients and/or components of a formulation [17]: unstable
Compound: CS(=O)(=O)O [methanesulfonic acid]

Compound: N#CS [Thiocyanic acid]
pKa1 [1, 20]: −1.3

Compound: O=S(=O)(O)c1ccc2ccccc2c1 [Naphthalene-2-sulfonic acid]
pKa1 [1, 19]: 0.17

Compound: O=C(O)CNC(=O)c1ccccc1 [Hippuric acid]
pKa1 [1, 20]: 3.6

Compound: N=C(N)NCCC[C@H](N)C(=O)O [L-Arginine]
pKa1 [1, 19]: 9.0

Compound: O=[N+]([O-])O [Nitric acid]
pKa1 [1, 19]: −1.3

Compound: O=C(O)c1cc2ccccc2c(Cc2c(O)c(C(=O)O)cc3ccccc23)c1O [Pamoic acid]
pKa1 [1, 20]: 2.5

Compound: H2SO4 [Compound H2SO4]
stability of strong acid salts [17]: prone to instability
stability towards excipients and/or components of a formulation [17]: unstable

Compound: O=S(=O)([O-])CCS(=O)(=O)[O-].[Na+].[Na+] [Sodium edisylate]
pKa1 [1, 20]: −2.1

Compound: [NH2][Pt]1([NH2])[O]C(=O)C2(CCC2)C(=O)[O]1 [Carboplatin, platinum, diamine[1,1-cyclobutanedicarboxylato(2-)-O,O′]-(SP-4-2)]
pH of a 1% solution ([18]; 1% solution): 5-7
solubility in ethanol, acetone, and dimethylacetamide ([18]; ethanol, acetone, dimethylacetamide): virtually insoluble
solubility in water ([18]; water): approximately 14 mg/mL

Compound: N[C@@H](Cc1c[nH]cn1)C(=O)O [Histidine]
pKa1 [1, 20]: 9.2

Compound: OCCNCCO [Diethanolamine]
pKa1 [1, 19]: 9.5

Compound: CCS(=O)(=O)O [Ethanesulfonic acid]
pKa1 [1, 19]: −1.6

Compound: NCCCC[C@H](N)C(=O)O [L-Lysine]
pKa1 [1, 20]: 9.2

— patent US11878956B2, “Metal salts and uses thereof” (Inspirna, Inc., priority 2019, dated 2024)
